The source of these data is patent publication US5175159A, “3-substituted-1,4-benzodiazepines as oxytocin antagonists” (Merck & Co., Inc., priority 1990, dated 1992).

For orientation: IC50 means the concentration at which inhibition is half-maximal. As a reminder, the inhibition is the drop in the measured response relative to a control, in per cent.

The target of the first experiment is T1, oxytocin receptor (Rattus norvegicus, UniProt P70536).
T1 construct: crude membrane preparation of rat uterus as the source of oxytocin receptors; from tissue; host or cells: rat uterus, crude membrane preparation
T1 sequence (P70536 1-388): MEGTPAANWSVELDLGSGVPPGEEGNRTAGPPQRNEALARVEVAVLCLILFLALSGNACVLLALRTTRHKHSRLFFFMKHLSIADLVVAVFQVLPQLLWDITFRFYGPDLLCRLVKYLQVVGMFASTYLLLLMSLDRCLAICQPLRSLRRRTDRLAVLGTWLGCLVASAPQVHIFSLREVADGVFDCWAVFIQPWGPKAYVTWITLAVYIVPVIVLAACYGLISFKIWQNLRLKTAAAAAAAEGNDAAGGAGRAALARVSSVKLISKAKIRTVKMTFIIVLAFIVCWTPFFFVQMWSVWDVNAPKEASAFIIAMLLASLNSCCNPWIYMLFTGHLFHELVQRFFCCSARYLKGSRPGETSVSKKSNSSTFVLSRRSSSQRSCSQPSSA
The experiment can be described thus: [^3H]Oxytocin Binding Assay (crude membrane preparation of rat uterus).
Settings: not given
The text has this: The biological activities of the compounds of Formula I have been evaluated using a[^3 H]oxytocin binding assay.
[^3 H]Oxytocin Binding Assay
Oxytocin receptors have been identified in mammalian uterine tissue through the use of in vitro radioligand binding assays. These receptor binding sites mediate the contractile response of the uterine myometrium to oxytocin. The present radioligand binding procedure has been adapted from the methods of Soloff, M. S. and Grzonka, Z., Endocrinology 119: 1564-1569 (1986) and Fuchs, A-R., Fuchs, F., and Soloff, M. S., J. Clinical Endocrinology and Metabolism 60: 37-41 (1985) and is utilized here to measure the relative affinity of test compounds for the oxytocin receptor labeled by [^3 H]oxytocin. The assay uses a crude membrane preparation of rat uterus as the source of oxytocin receptors. The IC50 values (concentration of test compound to inhibit [^3 H]oxytocin binding by 50%) are determined by incubating uterine tissue with [^3 H]oxytocin in the presence or absence of varying concentrations of compound.
`CN1C(=O)C(NC(=O)NC2C3CC4CC(C3)CC2C4)N=C(c2ccccc2)c2ccccc21` (racemic) [Example 1, (+/-)-N-(2,3-DIHYDRO-1-METHYL-2-OXO-5-PHENYL-1H-1,4-BENZODIAZEPIN-3-YL)-N'- TRICYCLO(3.3.1.1(3,7))DEC-2-YL-UREA] yielded an IC50 of 3.9 µM.

In turn, `CN1C(=O)C(NC(=O)C23CC4CC(CC(C4)C2)C3)N=C(c2ccccc2)c2ccccc21` (racemic) [Example 4, (+/-)-N-(2,3-DIHYDRO-1-METHYL-2-OXO-5-PHENYL-1H-1,4-BENZODIAZEPIN-3-YL)-TRICYCLO(3.3.1.1(3,7))DECANE-1-CARBOXAMIDE] showed an IC50 of 13.8 µM.

With `CN1C(=O)C(NC(=O)CC23CC4CC(CC(C4)C2)C3)N=C(c2ccccc2)c2ccccc21` (racemic) [Example 5, (+/-)-N-(2,3-DIHYDRO-1-METHYL-2-OXO-5-PHENYL-1H-1,4-BENZODIAZEPIN-3-YL)-TRICYCLO(3.3.1.1(3,7))DECANE-1-ACETAMIDE)], the IC50 worked out at 2.8 µM.

`CN1C(=O)C(NC(=O)NCC23CC4CC(CC(C4)C2)C3)N=C(c2ccccc2)c2ccccc21` (racemic) [Example 6, (+/-)-N-(2,3-DIHYDRO-1-METHYL-2-OXO-5-PHENYL-1H-1,4-BENZODIAZEPIN-3-YL)-N'- TRICYCLO(3.3.1.1(3,7))DEC-1-YL-METHYL)-UREA] displayed an IC50 of 2.7 µM.

Molecule `CN1C(=O)C(NC(=O)CC23CC4CC(CC(C)(C4)C2)C3)N=C(c2ccccc2)c2ccccc21` (racemic) [Example 7, (+/-)-N-(2,3-DIHYDRO-1-METHYL-2-OXO-5-PHENYL-1H-1,4-BENZODIAZEPIN-3-YL)-3-METHYLTRICYCLO(3.3.1.1(3,7))DECANE-1-ACETAMIDE] displayed an IC50 of 4.7 µM.

Take `CN1C(=O)[C@H](NC(=O)NC23CC4CC(CC(C4)C2)C3)N=C(c2ccccc2)c2ccccc21` (single isomer, unassigned) [Example 3]: the IC50 was 1.69 µM.

The molecule `CN1C(=O)[C@H](NS(=O)(=O)C[C@@]23CC[C@@H](CC2O)C3(C)C)N=C(c2ccccc2)c2ccccc21` (single isomer, unassigned) [Example 16A, N-(2,3-DIHYDRO-1-METHYL-2-OXO-5-PHENYL-1H-1,4-BENZODIAZEPIN-3-YL)-2-HYDROXY-7,7-DIMETHYL-BICYCLO(2.2.1) HEPTANE-1-METHANESULFONAMIDE, ISOMER A AND ISOMER B] returned a half-maximal inhibitory concentration (IC50) of 1.4 µM.

`CN1C(=O)C(NC(=O)NC2C3CC4CC(C3)CC2C4)N=C(c2ccccc2)c2ccccc21` (single isomer, unassigned; (+)) [Example 2, (+)-N-(2,3-DIHYDRO-1-METHYL-2-OXO-5-PHENYL-1H-1,4-BENZODIAZEPIN-3-YL)-N'-TRICYCLO(3.3.1.1(3,7))DEC-2-YL-UREA] returned a 50% inhibitory concentration (IC50) of 1.6 µM.

In turn, `CN1C(=O)C(NS(=O)(=O)C[C@]23CC[C@H](CC2=O)C3(C)C)N=C(c2ccccc2)c2ccccc21` (stereo partly drawn) [Example 8, (1S)-(1.ALPHA.(RS),4.ALPHA.))-N-(2,3-DIHYDRO-1-METHYL-2-OXO-5-PHENYL-1H-1,4-BENZODIAZEPIN-3-YL)-7,7-DIMETHYL-2-OXO-BICYCLO(2.2.1)HEPTANE-1-METHANESULFONAMIDE] registered an IC50 of 4.6 µM.

Regarding `CN1C(=O)C(NS(=O)(=O)C[C@@]23CC[C@@H](CC2=O)C3(C)C)N=C(c2ccccc2)c2ccccc21` (stereo partly drawn) [Example 9, (1R-(1.ALPHA.(RS),4.ALPHA.))-N-(2,3-DIHYDRO-1-METHYL-2-OXO-5-PHENYL-1H-1,4- BENZODIAZEPIN-3-YL)-7,7-DIMETHYL-2-OXO-BICYCLO(2.2.1)HEPTANE-1-METHANESULFONAMIDE], the half-maximal inhibitory concentration (IC50) was 3.6 µM.

Molecule `CN1C(=O)[C@H](NS(=O)(=O)C[C@@]23CC[C@@H](CC2=O)C3(C)C)N=C(c2ccccc2)c2ccccc21` [Example 15, (1R-(1.ALPHA.(S*),4.ALPHA.))-N-(2,3-DIHYDRO-1-METHYL-2-OXO-5-PHENYL-1H-1,4- BENZODIAZEPIN-3-YL)-7,7-DIMETHYL-2-OXO-BICYCLO(2.2.1)HEPTANE-1-METHANESULFONAMIDE] gave an IC50 of 1.4 µM.

In the case of `CN1C(=O)[C@@H](NS(=O)(=O)C[C@@]23CC[C@@H](CC2O)C3(C)C)N=C(c2ccccc2)c2ccccc21` (stereo partly drawn) [Example 17, N-(2,3-DIHYDRO-1-METHYL-2-OXO-5-PHENYL-1H-1,4-BENZODIAZEPIN-3-YL)-2-HYDROXY-7,7-DIMETHYL-BICYCLO(2.2.1) HEPTANE-1-METHANESULFONAMIDE], the IC50 was determined as 2.5 µM.

The same experiment, now with this note: [^3H]oxytocin binding, rat uterus membranes; @ 10 μM.
For `CN1C(=O)[C@@H](NC(=O)CC2C3CCC(C)(C2O)C3(C)C)N=C(c2ccccc2)c2ccccc21` (single isomer, unassigned) [Example 22B], the “% inhibition @ μM conc. (10 μM)” value turned out to be 41%.

The same experiment, now with this note: [^3H]oxytocin binding, rat uterus membranes; @ 10 μM; read-out: % inhibition @ μM conc. (10 μM).
Consider `CN1C(=O)CN(C(=O)NCC23CC4CC(CC(C4)C2)C3)C(c2ccccc2)c2ccccc21` (racemic) [Example 12, (+/-)-1,2,3,5-TETRAHYDRO-1-METHYL-2-OXO-5-PHENYL-N-(TRICYCLO(3.3.1.1.(3,7))DEC-1-YLMETHYL)-4H-1,4-BENZODIAZEPINE-4-CARBOXAMIDE], for which the inhibition at 10 µM is 66%.

For `CN1C(=O)CN(C(=O)NC2C3CC4CC(C3)CC2C4)C(c2ccccc2)c2ccccc21` (racemic) [Example 13, (+/-)-1,2,3,5-TETRAHYDRO-1-METHYL-2-OXO-5-PHENYL-N-TRICYCLO(3.3.1.1(3,7))DEC-2-YL-4H-1,4-BENZODIAZEPINE-4-CARBOXAMIDE], the inhibition at 10 µM was determined as 48%.

Still in this experiment, the particulars now being: read-out: % inhibition @ μM conc. (1 μM), [^3H]oxytocin binding, rat uterus membranes; @ 1 μM.
With `CN1C(=O)[C@H](NC(=O)CC2C(=O)C3(C)CCC2C3(C)C)N=C(c2ccccc2)c2ccccc21` (single isomer, unassigned) [Example 19], the inhibition at 1 µM was 39%.

`CN1C(=O)[C@H](NS(=O)(=O)C[C@]23CC[C@H](CC2=O)C3(C)C)N=C(c2ccccc2)c2ccccc21` [Example 20, (1S-(1.ALPHA.(S*),4.ALPHA.))-N-(2,3-DIHYDRO-1-METHYL-2-OXO-5-PHENYL-1H-1,4- BENZODIAZEPIN-3-YL)-7,7-DIMETHYL-2-OXO-BICYCLO(2.2.1)HEPTANE-1-METHANESULFONAMIDE]: the inhibition at 1 µM stood at 35%.

Regarding `CN1C(=O)[C@H](NC(=O)C2C(=O)C3(C)CCC2C3(C)C)N=C(c2ccccc2)c2ccccc21` (stereo partly drawn) [Example 23, [3(R)-N-(2,3-DIHYDRO-1-METHYL-2-OXO-5-PHENYL-1H-1,4-BENZODIAZEPIN-3-YL)]-2- OXO-1,7,7-TRIMETHYLBICYCLO(2.2.1)HEPTANE-3-CARBOXAMIDE], the inhibition at 1 µM amounted to 35%.

The experiment is the same for the next values; noted with them: read-out: % inhibition @ μM conc. (10 μM), [^3H]oxytocin binding, rat uterus membranes; @ 10 μM.
For the molecule `CCOC(=O)[C@@H](NC(=O)NC1N=C(c2ccccc2)c2ccccc2N(C)C1=O)c1ccccc1` (single isomer, unassigned) [Example 11, ALPHA.-((((2,3-DIHYDRO-1-METHYL-2-OXO-5-PHENYL-1H-1,4-BENZODIAZEPIN-3-YL)AMINO)CARBONYL)AMINO)BEN[…] ETHYL ESTER, ALPHA ISOMER], the inhibition at 10 µM came to 46%.

With `CN1C(=O)[C@@H](NC(=O)CC2C(=O)C3(C)CCC2C3(C)C)N=C(c2ccccc2)c2ccccc21` (single isomer, unassigned) [Example 18], the inhibition at 10 µM amounted to 39%.

On to `CN1C(=O)[C@H](NC(=O)CC2C(=O)C3(C)CCC2C3(C)C)N=C(c2ccccc2)c2ccccc21` (single isomer, unassigned) [Example 19], for which the inhibition at 10 µM worked out at 82%.

For `CN1C(=O)[C@@H](NC(=O)CC2C3CCC(C)(C2O)C3(C)C)N=C(c2ccccc2)c2ccccc21` (single isomer, unassigned) [Example 22A], the inhibition at 10 µM is 50%.

For `CN1C(=O)[C@@H](NS(=O)(=O)C[C@@]23CC[C@@H](CC2=O)C3(C)C)N=C(c2ccccc2)c2ccccc21` [Example 14, (1R-(1.ALPHA.(R*),4.ALPHA.))-N-(2,3-DIHYDRO-1-METHYL-2-OXO-5-PHENYL-1H-1,4- BENZODIAZEPIN-3-YL)-7,7-DIMETHYL-2-OXO-BICYCLO(2.2.1)HEPTANE-1-METHANESULFONAMIDE], the inhibition at 10 µM was 52%.

Regarding `CN1C(=O)[C@H](NS(=O)(=O)C[C@]23CC[C@H](CC2=O)C3(C)C)N=C(c2ccccc2)c2ccccc21` [Example 20, (1S-(1.ALPHA.(S*),4.ALPHA.))-N-(2,3-DIHYDRO-1-METHYL-2-OXO-5-PHENYL-1H-1,4- BENZODIAZEPIN-3-YL)-7,7-DIMETHYL-2-OXO-BICYCLO(2.2.1)HEPTANE-1-METHANESULFONAMIDE], the inhibition at 10 µM was determined as 80%.

Regarding `CN1C(=O)[C@@H](NS(=O)(=O)C[C@]23CC[C@H](CC2=O)C3(C)C)N=C(c2ccccc2)c2ccccc21` [Example 21, (1S-(1.ALPHA.(R*), 4.ALPHA.))-N-(2,3-DIHYDRO-1-METHYL-2-OXO-5-PHENYL-1H-1,4-BENZODIAZEPIN-3-YL)-7,7-DIMETHYL-2-OXO-BICYCLO(2.2.1)HEPTANE-1-METHANESULFONAMIDE], the inhibition at 10 µM came out at 15%.

`CN1C(=O)[C@H](NC(=O)C2C(=O)C3(C)CCC2C3(C)C)N=C(c2ccccc2)c2ccccc21` (stereo partly drawn) [Example 23, [3(R)-N-(2,3-DIHYDRO-1-METHYL-2-OXO-5-PHENYL-1H-1,4-BENZODIAZEPIN-3-YL)]-2- OXO-1,7,7-TRIMETHYLBICYCLO(2.2.1)HEPTANE-3-CARBOXAMIDE]: the inhibition at 10 µM was 85%.

The experiment is the same for the next values; noted with them: read-out: [^3 H]OT(uterus) IC50; inhibition of [^3H]oxytocin binding, rat uterus membranes.
For the molecule `CN1C(=O)C(NS(=O)(=O)CC23CCC(CC2O)C3(C)C)N=C(c2ccccc2)c2ccccc21` (single isomer, unassigned) [Example 16B, N-(2,3-DIHYDRO-1-METHYL-2-OXO-5-PHENYL-1H-1,4-BENZODIAZEPIN-3-YL)-2-HYDROXY-7,7-DIMETHYL-BICYCLO(2.2.1) HEPTANE-1-METHANESULFONAMIDE, ISOMER A AND ISOMER B], the IC50 came out at 1 µM.
